Read-outs that look alike come from different tables or passages of the source.
Assays:
[1] = Clinical pharmacokinetics in patients with metastatic pancreatic ductal adenocarcinoma; type: in vivo, human; details: for Vd: 3.2 mg/kg, read-out: Vz
Protocol: In this study, CEND-1 PK data from up to 28 participants receiving either 1.6 mg/kg (n = 14) and 3.2 mg/kg (n = 14) in the expansion cohort were analysed. Details of this phase I clinical study, conducted in patients with metastatic pancreatic ductal adenocarcinoma receiving CEND-1 in combination with nab-paclitaxel and gemcitabine, are described in detail by Dean et al.. PK parameters were measured following CEND-1 monotherapy (run-in day 1) and combination therapy (cycle 1 day 1 and cycle 6 day 1, if applicable).
In the initial monotherapy run-in phase, single doses of CEND-1 were given one to seven days before the start of the combination chemotherapy. In the combination therapy phase, patients first received an intravenous infusion of nab-paclitaxel (125 mg/m^2) over 30 min (±3 min). CEND-1 was then given intravenously as a slow IV push over 1 min (±30 s). The intravenous infusion of gemcitabine (1000 mg/m^2 over 30 min (±3 min)) was started within 10 min of CEND-1 administration. On all occasions, plasma samples were collected from patients before the CEND-1 infusion and at 3 min (±1 min), 15 min (±3 min), 30 min (±3 min), 1 hour (±5 min), ¾ h (±10 min) and 6/8 h (±10 min) after completion of the infusion.
(§1) No formal sample size calculation was performed. Samples of 2–12 animals and 31 pancreatic cancer patients were considered acceptable to perform initial pharmacokinetic evaluations. The concentrations of CEND-1 were used to calculate PK parameters by employing a non-compartmental analysis (Phoenix^TM WinNonlin, version 6.1). The linear log trapezoidal algorithm, with a weighting of 1/Y*Y was used for parameter calculations. Mean PK parameters were calculated from individual animals in each treatment group. Concentrations below the LLOQ (if any) were excluded for the calculation of PK parameters. The mean values of PK parameters were calculated using Microsoft Excel version 2010.

[2] = Detailed clinical and cage-side observations in pre-clinical species; type: in vivo, mice, rats, dogs and monkeys; details: any of the pre-clinical species tested, single IV dose
[3] = Single-dose intravenous pharmacokinetics in rats; type: in vivo, rat; details: for Vd: read-out: V; for clearance: read-out: Cl_obs (converted)
Protocol: The in vivo pharmacokinetic profile of CEND-1 after a single dose was evaluated in four non-GLP animal studies including Sprague-Dawley rats, Beagle dogs, cynomolgus monkeys and BALB/c mice following the intravenous injection of CEND-1 at various doses ([…]; 1.5, 4.5 and 13.5 mg/kg for mice) (Table 1). Blood samples were collected for pharmacokinetic evaluations pre-dose and at 1, 5, 10, 15 and 30 min, and 1, 2 and 6 h post-dose in rats, dogs and monkeys, and 3, 10, 30 and 90 min, and 4 and 8 h post-dose in mice.
Plasma CEND-1 was quantified by validated liquid chromatography coupled with a tandem mass spectrometry (LC/MS/MS) assay. Tolbutamide or leuprorelin acetate were used as internal standards. AB Sciex Triple Quad API 5500 (Sciex, Framingham, MA, USA), operated in the positive electrospray ionization (ESI) mode, was used to monitor the precursor to production ion transitions of m/z 495.4→69.9.
as §1

[4] = set-up: method as in PMID 35803294; details: phase I trial, monotherapy and in combination with chemotherapy drugs; cited from earlier work
[5] = pancreatic cancer patients, 3.2 mg/kg IV, plasma, Cycle 1 Day 1 with nab-paclitaxel+gemcitabine, mean, N=9
[6] = pancreatic cancer patients, 3.2 mg/kg IV, plasma, Cycle 1 Day 1 with nab-paclitaxel+gemcitabine, mean, N=13
[7] = pancreatic cancer patients, 3.2 mg/kg IV, plasma, Cycle 6 Day 1 with nab-paclitaxel+gemcitabine, N=1
[8] = pancreatic cancer patients, 3.2 mg/kg IV, plasma, Cycle 6 Day 1 with nab-paclitaxel+gemcitabine, mean, N=5
[9] = pancreatic cancer patients, 3.2 mg/kg IV, plasma, Run-In (monotherapy), mean, N=7
[10] = pancreatic cancer patients, 3.2 mg/kg IV, plasma, Run-In (monotherapy), mean, N=8
[11] = female, Sprague-Dawley rat, F, n=6, 1 mg/kg single IV, plasma LC/MS/MS, non-compartmental, one time point per animal
[12] = female, Sprague-Dawley rat, F, n=6, 5 mg/kg single IV, plasma LC/MS/MS, non-compartmental, one time point per animal
[13] = female, Sprague-Dawley rat, F, n=6, 75 mg/kg single IV, plasma LC/MS/MS, non-compartmental, one time point per animal
[14] = female, Sprague-Dawley rat, F, n=6, single IV, plasma LC/MS/MS, non-compartmental, one time point per animal
[15] = male, Sprague-Dawley rat, M, n=6, 1 mg/kg single IV, plasma LC/MS/MS, non-compartmental, one time point per animal
[16] = male, Sprague-Dawley rat, M, n=6, 5 mg/kg single IV, plasma LC/MS/MS, non-compartmental, one time point per animal
[17] = male, Sprague-Dawley rat, M, n=6, 75 mg/kg single IV, plasma LC/MS/MS, non-compartmental, one time point per animal
[18] = male, Sprague-Dawley rat, M, n=6, single IV, plasma LC/MS/MS, non-compartmental, one time point per animal

Vd ([1]; human, plasma, iv, pancreatic cancer patients, 3.2 mg/kg IV, plasma, Cycle 1 Day 1 with nab-paclitaxel+gemcitabine, mean, N=9): 0.263 L/kg | Vd ([1]; human, plasma, iv, pancreatic cancer patients, 3.2 mg/kg IV, plasma, Run-In (monotherapy), mean, N=7): 0.269 L/kg | Tmax ([1]; human, plasma, iv, patients, run-in day 1, 1.6 and 3.2 mg/kg, read-out: time of peak plasma concentration (first post-dose PK sampling timepoint) (converted)): 3 min | level at 8 h ([1]; human, plasma, patients, run-in day 1, 1.6 and 3.2 mg/kg IV, SD = 317.9, read-out: mean plasma concentration by 8 h post-dose): 439 ng/mL | AUC0-t ([1]; human, pancreatic cancer patients, 3.2 mg/kg IV, plasma, Cycle 6 Day 1 with nab-paclitaxel+gemcitabine, mean, N=5, read-out: AUC0-t): 30600 ng·h/mL | Cmax ([1]; human, pancreatic cancer patients, 3.2 mg/kg IV, plasma, Cycle 6 Day 1 with nab-paclitaxel+gemcitabine, mean, N=5, read-out: Cmax): 25800 ng/mL | Tmax ([1]; human, pancreatic cancer patients, 3.2 mg/kg IV, plasma, Cycle 6 Day 1 with nab-paclitaxel+gemcitabine, mean, N=5, read-out: Tmax): 3.78 min | AUC0-inf/D [1, 5]: 9592 kg·ng·h/mL | AUC(0-inf) [1, 5]: 30,690 h*ng/mL | CL [1, 5]: 1.792 mL/min/kg | t1/2 [1, 5]: 103.5 min | λlast [1, 5]: 0.4082 h⁻¹ | AUC0-t [1, 6]: 28,610 h*ng/mL | AUC0-t/D [1, 6]: 8942 kg·ng·h/mL | Cmax [1, 6]: 24,050 ng/mL | Cmax/D [1, 6]: 7514 kg*ng/mL/m | Tlast [1, 6]: 5.767 h | Tmax [1, 6]: 6.78 min | AUC0-inf/D [1, 7]: 10,440 h*kg*ng/mL | AUC(0-inf) [1, 7]: 33,400 h*ng/mL | CL [1, 7]: 1.6 mL/min/kg | Vz [1, 7]: 0.2209 L/kg | t1/2 [1, 7]: 95.88 min | λlast [1, 7]: 0.4338 h⁻¹ | AUC0-t/D [1, 8]: 9558 kg·ng·h/mL | Cmax/D [1, 8]: 8050 kg*ng/mL/m | Tlast [1, 8]: 4.897 h | AUC0-inf/D [1, 9]: 10,800 h*kg*ng/mL | AUC(0-inf) [1, 9]: 34,560 h*ng/mL | CL [1, 9]: 1.63 mL/min/kg | t1/2 [1, 9]: 117.4 min | λlast [1, 9]: 0.3607 h⁻¹ | AUC0-t [1, 10]: 31,330 h*ng/mL | AUC0-t/D [1, 10]: 9791 kg·ng·h/mL | Cmax [1, 10]: 31,210 ng/mL | Tlast [1, 10]: 6.725 h | Tmax [1, 10]: 7.02 min | plasma half-life ([1]; patients, intravenous administration): ~120 min | detailed clinical observations and cage-side observations [2]: no test-article-related abnormalities | Cl_obs ([3]; Sprague-Dawley rat, F, n=6, 1 mg/kg single IV, plasma LC/MS/MS, non-compartmental, one time point per animal): 9.37 mL/min/kg | half-life ([3]; Sprague-Dawley, rat, plasma, rats, single intravenous dose, read-out: average half-life): ~30 min | AUC(0-inf) [3, 11]: 1750 ng·h/mL | C0 [3, 11]: 3980 ng/mL | Vd [3, 11]: 0.201 L/kg | half-life ([3]; female, Sprague-Dawley rat, F, n=6, 1 mg/kg single IV, plasma LC/MS/MS, non-compartmental, one time point per animal, read-out: t1/2 (converted)): 14.9 min | AUC(0-inf) [3, 12]: 9750 ng·h/mL | C0 [3, 12]: 28400 ng/mL | clearance [3, 12]: 8.55 mL/min/kg | Vd [3, 12]: 0.323 L/kg | half-life ([3]; female, Sprague-Dawley rat, F, n=6, 5 mg/kg single IV, plasma LC/MS/MS, non-compartmental, one time point per animal, read-out: t1/2 (converted)): 26.2 min | AUC(0-inf) [3, 13]: 166000 ng·h/mL | Vd [3, 13]: 0.254 L/kg | half-life ([3]; female, Sprague-Dawley rat, F, n=6, 75 mg/kg single IV, plasma LC/MS/MS, non-compartmental, one time point per animal, read-out: t1/2 (converted)): 23.5 min | C0 [3, 14]: 436000 ng/mL | clearance [3, 14]: 7.52 mL/min/kg | AUC(0-inf) [3, 15]: 1770 ng·h/mL | C0 [3, 15]: 4230 ng/mL | clearance [3, 15]: 9.3 mL/min/kg | Vd [3, 15]: 0.64 L/kg | half-life ([3]; male, Sprague-Dawley rat, M, n=6, 1 mg/kg single IV, plasma LC/MS/MS, non-compartmental, one time point per animal, read-out: t1/2 (converted)): 48.3 min | AUC(0-inf) [3, 16]: 9060 ng·h/mL | C0 [3, 16]: 24300 ng/mL | clearance [3, 16]: 9.2 mL/min/kg | Vd [3, 16]: 0.366 L/kg | half-life ([3]; male, Sprague-Dawley rat, M, n=6, 5 mg/kg single IV, plasma LC/MS/MS, non-compartmental, one time point per animal, read-out: t1/2 (converted)): 27.6 min | AUC(0-inf) [3, 17]: 215000 ng·h/mL | Vd [3, 17]: 0.171 L/kg | half-life ([3]; male, Sprague-Dawley rat, M, n=6, 75 mg/kg single IV, plasma LC/MS/MS, non-compartmental, one time point per animal, read-out: t1/2 (converted)): 20.5 min | C0 [3, 18]: 469000 ng/mL | clearance [3, 18]: 5.8 mL/min/kg
Compound: CC(=O)N[C@H]1CSSC[C@@H](C(N)=O)NC(=O)[C@H](CC(=O)O)NC(=O)[C@@H]2CCCN2C(=O)CNC(=O)[C@H](CCCCN)NC(=O)[C@H](CC(=O)O)NC(=O)CNC(=O)[C@H](CCCNC(=N)N)NC1=O [CEND-1]
safety profile [4]: acceptable safety profile

— PMC10053770, “Assessment of the Pharmacokinetics, Disposition, and Duration of Action of the Tumour-Targeting Peptide CEND-1” (International Journal of Molecular Sciences, 2023)
